Test results reported in article PMC8228174, “In Vitro Characterization of Guanylyl Cyclase BdPepR2 from Brachypodium distachyon Identified through a Motif-Based Approach” (International Journal of Molecular Sciences, 2021).

B1: BdPepR2 (Brachypodium distachyon) (protein)
chain: MPGRLSAKRVSLRSLDSTEELPEDMTYEDILRATDNWSEKYVIGKGRHGTVYRTDCKLGKQWAVKTVDLSQCKFPIEMKILNTVKHRNIVRMAGYYIRGNVGLILYEYMPEGTLFELLHERKPQVALGWMARHQIALGVAQGLSYLHQDCVPMIVHRDVKSSNILMDVELVPKLTDFGMGKIVGDEDSDATVSVIVGTLGYIAPEHGYSTRLSEKSDVYSYGVVLLELLCRKMPVDSAFGDGVDIVTWMRSNLKQADHCSVMSCLDEEIVYWPEDEQAKALHLLDLAISCTEVACQLRPSMREVVNVLVRMDK
notes: full length 1146 aa; pGEX-6P-2, E. coli BL21(DE3)pLysS; GST tag cut off with PreScission protease

Columns and labels:
BdPepR2 [1] = target: T1, BdPepR2 (Brachypodium distachyon, UniProt A0A2K2CYK2); test: Kinase-Glo plus luminescent kinase assay; assay type: biochemical; conditions: 1 µM cGMP suppresses kinase activity; 100 μM ATP, Histone Type III-S, 5 mM MgCl2 and 5 mM MnCl2, 1 mM DTT, 25 mM Tris/HCl pH 7.5, 30 °C; extent only in figure
T1 construct: gene LOC100834510; full length 1146 aa; pGEX-6P-2, E. coli BL21(DE3)pLysS; GST tag cut off with PreScission protease

BdPepR2 [2] = target: T2, BdPepR2 (Brachypodium distachyon, UniProt A0A2K2CYK2, M1083A); test: Kinase-Glo plus luminescent kinase assay; assay type: biochemical; conditions: 1 µM cGMP suppresses kinase activity; 100 μM ATP, Histone Type III-S, 5 mM MgCl2 and 5 mM MnCl2, 1 mM DTT, 25 mM Tris/HCl pH 7.5, 30 °C; extent only in figure
T2 construct: gene LOC100834510; full length 1146 aa; pGEX-6P-2, E. coli BL21(DE3)pLysS; GST tag cut off with PreScission protease

BdPepR2 [3] = target: T1, BdPepR2; test: Kinase-Glo plus luminescent kinase assay; assay type: biochemical; conditions: 1 µM cGMP suppresses kinase activity; 100 μM ATP, Histone Type III-S, 5 mM MgCl2 and 5 mM MnCl2, 1 mM DTT, 25 mM Tris/HCl pH 7.5, 30 °C; extent only in figure; remark: listed apart in the source
Target sequence in this assay (A0A2K2CYK2 entry or part of it M1083R): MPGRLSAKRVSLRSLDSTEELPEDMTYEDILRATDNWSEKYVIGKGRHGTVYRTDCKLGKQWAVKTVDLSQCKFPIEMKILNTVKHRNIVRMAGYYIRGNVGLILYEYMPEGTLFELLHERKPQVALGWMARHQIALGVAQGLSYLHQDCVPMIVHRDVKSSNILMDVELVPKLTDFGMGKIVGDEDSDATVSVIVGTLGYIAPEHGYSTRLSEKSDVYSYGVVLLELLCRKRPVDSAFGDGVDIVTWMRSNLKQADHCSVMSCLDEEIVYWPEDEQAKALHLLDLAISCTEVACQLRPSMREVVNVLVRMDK

[4] = substrate: Nc1nc2c(ncn2[C@@H]2O[C@H](COP(=O)(O)OP(=O)(O)OP(=O)(O)O)[C@@H](O)[C@H]2O)c(=O)[nH]1; test: guanylyl cyclase assay, cGMP by LC-MS/MS; assay type: biochemical, Brachypodium distachyon; conditions: 5 mM MnCl2, 50 mM Tris/HCl pH 7.5, 30 °C, 15 min, GTP 0.5-2 mM, GC centre

T2 sequence (A0A2K2CYK2 entry or part of it M1083A): as the sequence (A0A2K2CYK2 entry or part of it M1083R) above, with R233A counted along it

Molecule	Kinase-Glo plus luminescent kinase assay (BdPepR2 [1])	Kinase-Glo plus luminescent kinase assay (BdPepR2 [2])	Kinase-Glo plus luminescent kinase assay (BdPepR2 [3])	Km [4] [µM]
Nc1nc2c(ncn2[C@@H]2O[C@@H]3COP(=O)(O)O[C@H]3[C@H]2O)c(=O)[nH]1 [cGMP]	only the product of GC activity, cGMP, statistically significantly suppress kinase activity of BdPepR2	kinase activity of BdPepR2, BdPepR2M1066A, and BdPepR2M1066R is suppressed by GTP and cGMP	kinase activity of BdPepR2, BdPepR2M1066A, and BdPepR2M1066R is suppressed by GTP and cGMP	–
B1	–	–	–	1189
